One may read the IC50 as the point on the concentration scale where inhibition reaches its midpoint. Higher therefore signals a need for much substance.

Consider 19 compounds from patent US20080027042A1, “Novel Aminopyridine Derivatives Having Aurora a Selective Inhibitory Action” (priority 2004, published 2008).

Counter-ions that a name gives are not always drawn.

One experiment deals with T1, Aurora B (Homo sapiens, UniProt Q96GD4).
T1 construct: histidine tag (N); made in house; host or cells: Escherichia coli BL21-CodonPlus(DE3)-RIL
T1 sequence (Q96GD4 whole entry): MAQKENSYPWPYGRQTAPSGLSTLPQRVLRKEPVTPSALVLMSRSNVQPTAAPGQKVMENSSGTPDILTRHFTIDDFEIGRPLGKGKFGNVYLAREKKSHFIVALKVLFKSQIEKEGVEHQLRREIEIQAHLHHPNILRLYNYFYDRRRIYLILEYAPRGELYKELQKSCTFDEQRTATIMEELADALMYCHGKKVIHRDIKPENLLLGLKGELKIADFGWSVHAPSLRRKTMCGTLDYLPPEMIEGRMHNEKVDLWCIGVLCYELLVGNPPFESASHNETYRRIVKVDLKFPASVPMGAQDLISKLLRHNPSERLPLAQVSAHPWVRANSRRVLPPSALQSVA
Put plainly: Aurora B inhibitory action (33P-ATP kinase assay, Kemptide substrate). The experiment is classed as biochemical. As to conditions: 100 μM ATP, 30° C., 20 minutes. The source says: Aurora B Inhibitory Action
(1) Purification of Aurora B
cDNA of Aurora B having histidine tag fused at the amino terminal was integrated into an expression vector, which was then highly expressed in Escherichia coli BL21-CodonPlus(DE3)-RIL cells. The Escherichia coli cells were recovered and solubilized, and then the histidine-tagged […] protein was adsorbed onto a nickel chelate column and eluted from the column with imidazole. The active fraction was desalted with a desalting column to give a pure enzyme.
(2) Measurement of Activity of Aurora B
For measurement of the activity of Aurora B, the substrate used was Kemptide (Lys-Arg-Arg-Ala-Ser-Lys-Gly) (SEQ.ED.NO.: 1), a synthetic peptide purchased from Sigma-Aldrich, Inc. [Certificate of analysis (Upstate, Inc.)].
Reaction was conducted by a partial modification of the method of activity measurement for Aurora A. The amount of the reaction liquid was 21.1 μL, and the composition of the reaction buffer (R2 buffer) was 50 mM Tris-hydrochloride buffer (pH 7.4)/15 mM magnesium acetate/0.2 mM ethylenediamine-N,N,N′,N′-tetraacetate (EDTA). To this, purified Aurora B, 100 μM of a substrate peptide, 100 μM of unlabeled adenosine triphosphate (ATP) and 1 μCi of [γ-^33P] labeled ATP (2,500 Ci/mmole or more) were added, and the mixture was reacted at 30° C. for 20 minutes. Then, 10 μL of 350 mM phosphate buffer was added to the reaction system to stop the reaction. The substrate peptide was adsorbed on a P81 paper filter 96-well plate and then washed with 130 mM phosphate buffer for several times. The radiation activity of the peptide was measured with a liquid scintillation counter. The [γ-^33P] labeled ATP was purchased from Amersham Biosciences Co., Ltd.
(§1) The compound to be tested was added to the reaction system such that a dilution series of the compound in dimethylsulfoxide was first prepared, and 1.1 μL of this solution was added. A control was provided by adding 1.1 μL of DMSO to the reaction system.

The target in the next experiment is T2, Aurora A (Homo sapiens, UniProt O14965).
T2 construct: histidine tag (N); made in house; host or cells: Escherichia coli BL21-CodonPlus(DE3)-RIL
T2 sequence (O14965 1-403): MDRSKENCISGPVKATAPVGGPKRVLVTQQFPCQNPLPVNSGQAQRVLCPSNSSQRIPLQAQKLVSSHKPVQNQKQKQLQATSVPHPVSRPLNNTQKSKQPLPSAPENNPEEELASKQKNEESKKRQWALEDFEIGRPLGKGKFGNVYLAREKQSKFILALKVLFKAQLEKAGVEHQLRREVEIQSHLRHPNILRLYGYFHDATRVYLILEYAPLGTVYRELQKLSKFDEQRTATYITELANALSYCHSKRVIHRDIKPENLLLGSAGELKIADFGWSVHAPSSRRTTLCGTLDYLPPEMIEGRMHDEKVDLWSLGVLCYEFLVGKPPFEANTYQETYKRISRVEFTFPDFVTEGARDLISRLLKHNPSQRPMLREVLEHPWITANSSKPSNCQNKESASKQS
Put plainly: Aurora A inhibitory action (33P-ATP kinase assay, Kemptide substrate). It is filed as biochemical. As to conditions: 20 μM ATP, 30° C., 20 minutes.
Description: Aurora A Inhibitory Action
(1) Purification of Aurora A
cDNA of Aurora A having histidine tag fused at the amino terminal was integrated into an expression vector, which was then highly expressed in Escherichia coli BL2 1-CodonPlus(DE3)-RIL cells. The Escherichia coli cells were recovered and solubilized, and then the histidine-tagged Aurora A protein was adsorbed onto a nickel chelate column and eluted from the column with imidazole. The active fraction was desalted with a desalting column to give a pure enzyme.
(2) Measurement of Activity of Aurora A
For measurement of the activity of Aurora A, the substrate used was Kemptide (Lys-Arg-Arg-Ala-Ser-Lys-Gly) (SEQ.ID.NO.: 1), a synthetic peptide purchased from Sigma-Aldrich, Inc. [Certificate of analysis (Upstate, Inc.)].
Reaction was conducted by a partial modification of a method by Upstate, Inc. [Kinase Profiler™ Assay Protocols]. The amount of the reaction liquid was 21.1 μL, and the composition of the reaction buffer (R2 buffer) was 50 mM Tris-hydrochloride buffer (pH 7.4)/15 mM magnesium acetate/0.2 mM ethylenediamine-N,N,N′,N′-tetraacetate (EDTA). To this, purified Aurora A, 100 μM of a substrate peptide, 20 μM of unlabeled adenosine triphosphate (ATP) and 0.5 μCi of [γ-^33P] labeled ATP (2,500 Ci/mmole or more) were added, and the mixture was reacted at 30° C. for 20 minutes. Then, 10 μL of 350 mM phosphate buffer was added to the reaction system to stop the reaction. The substrate peptide was adsorbed on a P81 paper filter 96-well plate and then washed with 130 mM phosphate buffer for several times. The radiation activity of the peptide was measured with a liquid scintillation counter. The [γ-^33P] labeled ATP was purchased from Amersham Biosciences Co., Ltd.
as §1

Take `O=C(c1ccnc(F)c1)N1CCN(Cc2cccc(Nc3ncc(Br)s3)n2)CC1` [Example 79, 6-((4-(2-fluoroisonicotinoyl)piperazin-1-yl)methyl)-N-(5-bromothiazol-2-yl)pyridin-2-amine]: the IC50 came to 2.2 µM against Aurora B and 0.026 µM on Aurora A.

Turning to `O=C(c1cccc(Cl)c1F)N1CCN(Cc2cc(Br)cc(Nc3nccs3)n2)CC1` [Example 81, 4-bromo-6-((4-(3-chloro-2-fluorobenzoyl)piperazin-1-yl)methyl)-N-thiazol-2-ylpyridin-2-amine], the IC50 is 0.3 µM against Aurora B and 0.00033 µM at Aurora A.

As to `COC(=O)c1cc(CN2CCN(C(=O)c3cccc(Cl)c3F)CC2)nc(Nc2nccs2)c1` [Example 82, methyl 2-((4-(3-chloro-2-fluorobenzoyl)piperazin-1-yl)methyl)-6-(thiazol-2-ylamino)isonicotinate], the IC50 against Aurora B worked out at 0.21 µM; at Aurora A, 0.00051 µM.

For the compound `O=C(O)c1cc(CN2CCN(C(=O)c3cccc(Cl)c3F)CC2)nc(Nc2nccs2)c1` [Example 83, 2-((4-(3-chloro-2-fluorobenzoyl)piperazin-1-yl)methyl)-6-(thiazol-2-ylamino)isonicotinic acid], the IC50 came to 0.8 µM against Aurora B and 0.00064 µM at Aurora A.

Consider `O=C(c1cc(CN2CCN(C(=O)c3cccc(Cl)c3F)CC2)nc(Nc2nccs2)c1)N1CCCC1` [Example 84, 6-((4-(3-chloro-2-fluorobenzoyl)piperazin-1-yl)methyl)-4-(pyrrolidin 1-ylcarbonyl)-N-thiazol-2-ylpyridin-2-amine trifluoroacetate], for which the IC50 worked out at 0.4 µM against Aurora B and 0.00072 µM against Aurora A.

On to `CNC(=O)c1cc(CN2CCN(C(=O)c3cccc(Cl)c3F)CC2)nc(Nc2nccs2)c1` [Example 85, 2-((4-(3-chloro-2-fluorobenzoyl)piperazin-1-yl)methyl)-N-methyl-6-(thiazol-2-ylamino)isonicotinamide trifluoroacetate], for which the results for the IC50 against Aurora B and against Aurora A were 0.61 µM and 0.001 µM, respectively.

For `NC(=O)c1cc(CN2CCN(C(=O)c3cccc(Cl)c3F)CC2)nc(Nc2nccs2)c1` [Example 87, 2-((4-(3-chloro-2-fluorobenzoyl)piperazin-1-yl)methyl)-6-(thiazol-2-ylamino)isonicotinamide trifluoroacetate], the concentration for half-maximal inhibition (IC50) at Aurora B is 1.4 µM; against Aurora A, 0.0012 µM.

Take `O=C(NCCO)c1cc(CN2CCN(C(=O)c3cccc(Cl)c3F)CC2)nc(Nc2nccs2)c1` [Example 88, 2-((4-(3-chloro-2-fluorobenzoyl)piperazin-1-yl)methyl)-N-(2-hydroxyethyl)-6-(thiazol-2-ylamino)isonicotinamide trifluoroacetate]: the IC50 against Aurora B was 1 µM; against Aurora A, 0.00072 µM.

Regarding `O=C(c1cccc(Cl)c1F)N1CCN(Cc2cc(Cn3ccnn3)cc(Nc3nccs3)n2)CC1` [Example 90, 6-((4-(3-chloro-2-fluorobenzoyl)piperazin-1-yl)methyl)-N-thiazol-2-yl-4-(1H-1,2,3-triazol-1-ylmethyl)pyridin-2-amine trifluoroacetate], the values for the IC50 at Aurora B and on Aurora A were 0.86 µM and 0.0015 µM, respectively.

For the compound `O=C(c1cccc(Cl)c1F)N1CCN(Cc2cc(Cn3nccn3)cc(Nc3nccs3)n2)CC1` [Example 91, 6-((4-(3-chloro-2-fluorobenzoyl)piperazin-1-yl)methyl)-N-thiazol-2-yl-4-(2H-1,2,3-triazol-2-ylmethyl)pyridin-2-amine trifluoroacetate], the IC50 against Aurora B was 1.2 µM; against Aurora A, 0.0014 µM.

In the case of `O=C(c1cccc(Cl)c1F)N1CCN(Cc2cc(Cn3cncn3)cc(Nc3nccs3)n2)CC1` [Example 92, 6-((4-(3-chloro-2-fluorobenzoyl)piperazin-1-yl)methyl)-N-thiazol-2-yl-4-(1H-1,2,4-triazol-1-ylmethyl)pyridin-2-amine trifluoroacetate], the values for the IC50 on Aurora B and against Aurora A were 0.83 µM and 0.00093 µM, respectively.

As for `CS(=O)(=O)Cc1cc(CN2CCN(C(=O)c3cccc(Cl)c3F)CC2)nc(Nc2nccs2)c1` [Example 93, 6-((4-(3-chloro-2-fluorobenzoyl)piperazin-1-yl)methyl)-4-((methanesulfonyl)methyl)-N-thiazol-2-ylpyridin-2-amine], the 50% inhibitory concentration (IC50) at Aurora B was found to be 0.25 µM; against Aurora A it was 0.00036 µM.

Consider `CN(C)Cc1cc(CN2CCN(C(=O)c3cccc(Cl)c3F)CC2)nc(Nc2nccs2)c1` [Example 94, 6-((4-(3-chloro-2-fluorobenzoyl)piperazin-1-yl)methyl)-4-((dimethylamino)methyl)-N-thiazol-2-ylpyridin-2-amine], for which the figures for the IC50 at Aurora B and at Aurora A were 1.1 µM and 0.0011 µM, respectively.

Consider `O=C(c1cccc(Cl)c1F)N1CCN(Cc2cc(N3CCCC3=O)cc(Nc3nccs3)n2)CC1` [Example 96, 1-(2-((4-(3-chloro-2-fluorobenzoyl)piperazin-1-yl)methyl)-6-(thiazol-2-ylamino)pyridin-4-yl)pyrrolidin-2-one], for which the results for the IC50 at Aurora B and at Aurora A were 0.69 µM and 0.00057 µM, respectively.

For `O=C(c1cccc(Cl)c1F)N1CCN(Cc2cc(N3CCOC3=O)cc(Nc3nccs3)n2)CC1` [Example 97, 3-(2-((4-(3-chloro-2-fluorobenzoyl)piperazin-1-yl)methyl)-6-(thiazol-2-ylamino)pyridin-4-yl)-1,3-oxazolidin-2-one], the 50% inhibitory concentration (IC50) against Aurora B was found to be 0.83 µM; against Aurora A, 0.00062 µM.

As to `CN1CCN(c2cc(CN3CCN(C(=O)c4cccc(Cl)c4F)CC3)nc(Nc3nccs3)c2)C1=O` [Example 98, 3-(2-((4-(3-chloro-2-fluorobenzoyl)piperazin-1-yl)methyl)-6-(thiazol-2-ylamino)pyridin-4-yl)-3-methylimidazolidin-2-one], the IC50 on Aurora B is 0.23 µM; against Aurora A it was 0.00036 µM.

On to `O=C(c1cccc(F)c1F)N1CCN(Cc2cc(NCC(F)F)cc(Nc3nccs3)n2)CC1` [Example 100, 6-((4-(2,3-difluorobenzoyl)piperazin-1-yl)methyl)-N4-(2,2-difluoroethyl)-N^2-thiazol-2-ylpyridine-2,4-diamine], for which the IC50 at Aurora B worked out at 1.3 µM; at Aurora A, 0.0026 µM.

Consider `O=C(c1cccc(F)c1F)N1CCN(Cc2cc(N3CCOCC3)cc(Nc3nccs3)n2)CC1` [Example 103, 6-((4-(2,3-difluorobenzoyl)piperazin-1-yl)methyl)-4-morpholin-4-yl-N-thiazol-2-ylpyridin-2-amine], for which the IC50 is 0.25 µM against Aurora B and 0.00076 µM on Aurora A.

As for `O=C(c1cccc(Cl)c1F)N1CCN(Cc2cc(-c3nn[nH]n3)cc(Nc3nccs3)n2)CC1` [Example 105, 6-((4-(3-chloro-2-fluorobenzoyl)piperazin-1-yl)methyl)-4-(2H-tetrazol-5-yl)-N-thiazol-2-ylpyridin-2-amine], the IC50 on Aurora B came out at 1 µM; against Aurora A, 0.0014 µM.
